Results from patent publication US4594421A, “Imidazopyridine compounds” (priority 1984, dated 1986).
Like-named read-outs stand apart in the source and are kept apart here.

What was measured:
[1] = tested on: phrenic-diaphragm preparation; assay: Neuromuscular blocking activity in vitro, phrenic-diaphragm preparation; set-up: species or system male Sprague-Dawley rats; conditions: rat phrenic-diaphragm, 37° C., cumulative concentrations, read-out: EC50 (effective concentration able to reduce the muscular contraction of 50%)
Method: (§1) The neuromuscular blocking activity has been evaluated:
in vitro, using the phrenic-diaphragm preparation according to the method described by Bulbring E. (Brit. J. Pharmac. Chemother. 1, 38, 1946). The preparation, taken from male Sprague-Dawley rats weighing 200-250 g, was placed into a bath for isolated organs, thermostatically kept at 37° C. and containing a nutritional liquid oxygenated with […] carboxygen. The phrenic nerve was stimulated by means of square wave impulses (12 per min., duration 0.5 msec., overmaximal voltage). […] The dose-effect curve, determined for each of them, allowed to calculate the EC50 or effective concentration able to reduce the muscular contraction of 50% (Table 1);

[2] = tested on: sciatic-gastrocnemious preparation; assay: Neuromuscular blocking activity in vivo, sciatic-gastrocnemious preparation; set-up: species or system male Sprague-Dawley rats; conditions: for ED50: iv, read-out: ED50 (effective dose causing the 50% reduction of muscular contraction)
Method: as §1
(§2) in vivo, using the sciatic-gastrocnemious preparation, substantially following the method described by Hughes R. (Br. J. Anaesth. 44, 27, 1972). Male Sprague-Dawley rats weighing 200-250 g, anaesthetized (urethane 1,2 g/kg i.p.) and submitted to forced ventilation, were treated. The sciatic nerve was stimulated at a rate of 6 impulses per min. by means of square waves and overmaximal voltage with a duration of 0.5 msec. The left carotid artery was incannulated for the continuous registration of arterial blood pressure and heart rate.
(§3) The compounds to be tested were administered by i.v. route at increasing doses, given at intervals of at least 30 min. from one to another and, in any case, after the effect of previous administration had completely exhausted.
(§4) In addition, the time of latence (the interval between the administration and the maximal effect) and that of complete recovery have been determined.

[3] = tested on: arterial blood pressure and heart rate; assay: Cardiovascular effects (arterial blood pressure and heart rate) in vivo; set-up: species or system male Sprague-Dawley rats; conditions: rat, i.v.; for Arterial blood pressure Δ % / Heart rate Δ %: at ED50 on muscular contraction
Method: as §2, §3, §4

[4] = Acute toxicity (LD50) in rat; set-up: species or system male Sprague-Dawley rats; conditions: in vivo, iv, Litchfield and Wilcoxon
Method: The LD50 were then calculated according to the method of Litchfield J. T. and Wilcoxon F. J. (J. Pharmac. Exp. Ther., 95, 99, 1949).

[5] = tested on: skeletal neuromuscular junction; conditions: known compound of the commerce; cited from earlier work
[6] = rat, i.v., anaesthetized (urethane)

Row | SMILES | EC50 [1] [µM] | ED50 [2, 6] [µg/kg] | Latence (interval between the administration and the maximal effect) ([2]; rat, i.v.) [min] | Recovery (time of complete recovery) ([2]; rat, i.v.) [min] | Arterial blood pressure Δ % [3] [%] | Heart rate Δ % [3] | LD50 [4] [µmol/kg] | ED50 ([2]; Rattus norvegicus) [µg/kg] | Arterial blood pressure Δ % at minimal active dose ([3]; at minimal active dose on muscular contraction) [%] | activity in vivo ([2]; rat, i.v.) | known activity of the standard [5]
1 | Fc1ccc(-c2c[n+]3ccccc3n2CCCCCCn2c(-c3ccc(F)cc3)c[n+]3ccccc23)cc1 [Example 1, 1,1'-(1,6-Hexamethylene)bis[2-(4'-fluoro)phenyl]imidazo[1,2-a]pyridinium perchlorate] | 15 | 3 | 2.2 | 7.9 | -37 | +28% | 3.9 | – | – | – | –
2 | c1ccc(-c2c[n+]3ccccc3n2CCCCCCCCn2c(-c3ccccc3)c[n+]3ccccc23)cc1 [Example 2, 1,1'-(1,8-Octamethylene)bis-2-phenylimidazo[1,2-a]piridinium perchlorate] | 11.9 | 1.9 | 2.2 | 9.2 | -45 | +22% | 2.7 | – | – | – | –
3 | Cc1c(-c2ccccc2)n(CCCCCCCCn2c(-c3ccccc3)c(C)[n+]3ccccc23)c2cccc[n+]12 [Example 3, 1,1'-(1,8-Octamethylene)bis(2-phenyl-3-methyl)imiadazo[1,2-a]pyridinium perchlorate] | 14.3 | 1.6 | 1.2 | 5.0 | -28 | +40% | 2 | – | – | – | –
4 | Cc1c(-c2ccccc2)n(CCCCn2c(-c3ccccc3)c(C)[n+]3ccccc23)c2cccc[n+]12 [Example 4, 1,1'-(1,4-Tetramethylene)bis(2-phenyl-3-methyl)imidazo[1,2-a]pyridinium perchlorate] | 28.7 | 5 | 1.3 | 6.2 | -28 | +1% | 4.3 | – | – | – | –
5 | COc1ccc(-c2c[n+]3ccccc3n2CCCCCCn2c(-c3ccc(OC)cc3)c[n+]3ccccc23)cc1 [Example 5, 1,1'-(1,6-Hexamethylene)bis[2-(4'-methoxy)phenyl]imidazo[1,2-a]pyridinium bromide monohydrate] | 14.7 | 1.9 | 1.5 | 6.4 | -39 | +26% | 2.6 | – | – | – | –
6 | Brc1ccc(-c2c[n+]3ccccc3n2CCCCCCn2c(-c3ccc(Br)cc3)c[n+]3ccccc23)cc1 [Example 7, 1,1'-(1,6-Hexamethylene)bis[2-(4-bromophenyl)]imidazo[1,2-a]pyridinium bromide] | 15.4 | 3 | 1.5 | 9.8 | -50 | -8% | 6 | – | – | – | –
7 | Cc1c(-c2ccccc2)n(CCCCCCn2c(-c3ccccc3)c(C)[n+]3ccccc23)c2cccc[n+]12 [Example 8, 1,1'-(1,6-Hexamethylene)bis(2-phenyl-3-methyl)imidazo[1,2-a]pyridinium perchlorate] | 13.6 | 1.3 | 2.1 | 7.7 | -40 | +68% | 2 | – | – | – | –
8 | c1ccc(-c2c[n+]3ccccc3n2CCCCn2c(-c3ccccc3)c[n+]3ccccc23)cc1 [Example 9, 1,1'-(1,4-Tetramethylene)bis-2-phenylimidazo[1,2-a]pyridinium perchlorate] | 28.9 | 3.3 | 2.1 | 7.0 | -31 | +25% | 3.2 | – | – | – | –
9 | c1ccc(-c2c[n+]3ccccc3n2CCn2c(-c3ccccc3)c[n+]3ccccc23)cc1 [Example 10, 1,1'-(1,2-Ethylene)bis-2-phenylimidazo[1,2-a]pyridinium perchlorate] | 31.4 | 4 | 2.8 | 14.0 | -30 | +28% | 8.8 | – | – | – | –
10 | c1ccc(-c2c[n+]3ccccc3n2CCCCCCn2c(-c3ccccc3)c[n+]3ccccc23)cc1 [Example 11, 1,1'-(1,6-Hexamethylene)bis-2-phenylimidazo[1,2-a]pyridinium perchlorate] | 12.9 | 2.1 | 2.3 | 8.8 | -40 | +42% | 3.1 | – | – | – | –
11 | Cc1c(-c2ccccc2)n(CCn2c(-c3ccccc3)c(C)[n+]3ccccc23)c2cccc[n+]12 [Example 12, 1,1'-(1,2-Ethylene)bis(2-phenyl-3-methyl)imidazo[1,2-a]pyridinium perchlorate] | 115 | – | 2.6 | 12.2 | -5 | +6% | 9.7 | 5.6 | -24 | – | –
12 | Cc1c(-c2ccccc2)n(/N=N/n2c(-c3ccccc3)c(C)[n+]3ccccc23)c2cccc[n+]12 [Fazadinium bromide, 1,1-azabis 3-methyl-2-phenylimidazo 1,2-a pyridinium bromide, reference compound] | 13.9 | 1 | 1.5 | 6.6 | -16 | +30% | 1.5 | – | – | active | competitive skeletal muscle paralysing activity
